Experimental data as given in PubChem BioAssay (NCI).
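In this assay, cells in 96-well plates receive the compound at five concentrations for 48 hours. Endpoints are linearly interpolated between the surrounding concentrations. TGI marks complete inhibition of growth.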

Experiments:
Assay in all cases: NCI tumour cell line growth inhibition, 48 h
MALME-3M melanoma = system: MALME-3M melanoma
A498 renal = system: A498 renal
XF 498 CNS = system: XF 498 CNS
U251 CNS = system: U251 CNS
SNB-75 CNS = system: SNB-75 CNS
K-562 leukemia = system: K-562 leukemia
SK-MEL-28 melanoma = system: SK-MEL-28 melanoma
MCF7 breast = system: MCF7 breast
CAKI-1 renal = system: CAKI-1 renal
DLD-1 colon = system: DLD-1 colon
OVCAR-4 ovarian = system: OVCAR-4 ovarian
KM12 colon = system: KM12 colon
SNB-19 CNS = system: SNB-19 CNS
A549 NSCLC = system: A549 NSCLC
COLO 205 colon = system: COLO 205 colon
HT29 colon = system: HT29 colon
DMS 114 small cell lung = system: DMS 114 small cell lung
RXF 393 renal = system: RXF 393 renal
IGROV1 ovarian = system: IGROV1 ovarian
MOLT-4 leukemia = system: MOLT-4 leukemia
OVCAR-3 ovarian = system: OVCAR-3 ovarian
HOP-92 NSCLC = system: HOP-92 NSCLC
EKVX NSCLC = system: EKVX NSCLC
M19-MEL melanoma = system: M19-MEL melanoma
HOP-62 NSCLC = system: HOP-62 NSCLC
HCT-116 colon = system: HCT-116 colon
SK-MEL-2 melanoma = system: SK-MEL-2 melanoma
OVCAR-8 ovarian = system: OVCAR-8 ovarian
HL-60(TB) leukemia = system: HL-60(TB) leukemia
CCRF-CEM leukemia = system: CCRF-CEM leukemia
SK-MEL-5 melanoma = system: SK-MEL-5 melanoma
KM20L2 colon = system: KM20L2 colon
NCI-H460 lung = system: NCI-H460 lung
P388 leukemia = system: P388 leukemia
NCI-H226 lung = system: NCI-H226 lung
SF-295 CNS = system: SF-295 CNS
UO-31 renal = system: UO-31 renal
HCC-2998 colon = system: HCC-2998 colon
RPMI-8226 leukemia = system: RPMI-8226 leukemia
HOP-18 NSCLC = system: HOP-18 NSCLC
SN12C renal = system: SN12C renal
P388/ADR leukemia = system: P388/ADR leukemia
SF-539 CNS = system: SF-539 CNS
SN12K1 renal = system: SN12K1 renal
SK-OV-3 ovarian = system: SK-OV-3 ovarian
NCI-H522 lung = system: NCI-H522 lung
UACC-62 melanoma = system: UACC-62 melanoma
SF-268 CNS = system: SF-268 CNS
SNB-78 CNS = system: SNB-78 CNS
UACC-257 melanoma = system: UACC-257 melanoma
HCT-15 colon = system: HCT-15 colon
SW-620 colon = system: SW-620 colon
LOX IMVI melanoma = system: LOX IMVI melanoma
OVCAR-5 ovarian = system: OVCAR-5 ovarian
NCI-H23 lung = system: NCI-H23 lung
DMS 273 small cell lung = system: DMS 273 small cell lung
NCI/ADR-RES ovarian = system: NCI/ADR-RES ovarian

## C=C1C(=O)O[C@@H]2[C@H]3O[C@]3(C)CCC=C(C)CC[C@@H]12
MALME-3M melanoma
  TGI: 25.3 µM
A498 renal
  TGI: 13.3 µM
XF 498 CNS
  TGI: 32.4 µM
U251 CNS
  TGI: 88.6 µM
SNB-75 CNS
  TGI: 123 µM
K-562 leukemia
  TGI: 130 µM
SK-MEL-28 melanoma
  TGI: 44.3 µM
MCF7 breast
  TGI: 47.4 µM
CAKI-1 renal
  TGI: 22.5 µM
DLD-1 colon
  TGI: 28.4 µM
OVCAR-4 ovarian
  TGI: 45.3 µM
KM12 colon
  TGI: 53.6 µM
SNB-19 CNS
  TGI: 163 µM
A549 NSCLC
  TGI: 202 µM
COLO 205 colon
  TGI: 31.7 µM
HT29 colon
  TGI: 68.8 µM
DMS 114 small cell lung
  TGI: 165 µM
RXF 393 renal
  TGI: 27.4 µM
IGROV1 ovarian
  TGI: 52.4 µM
MOLT-4 leukemia
  TGI: 92 µM
OVCAR-3 ovarian
  TGI: 40.7 µM
HOP-92 NSCLC
  TGI: 26.5 µM
EKVX NSCLC
  TGI: 39.2 µM
M19-MEL melanoma
  TGI: 33.7 µM
HOP-62 NSCLC
  TGI: 102 µM
HCT-116 colon
  TGI: 35.1 µM
SK-MEL-2 melanoma
  TGI: 37.7 µM
OVCAR-8 ovarian
  TGI: 43.9 µM
HL-60(TB) leukemia
  TGI: 23.4 µM
CCRF-CEM leukemia
  TGI: 59.9 µM
SK-MEL-5 melanoma
  TGI: 49.1 µM
KM20L2 colon
  TGI: 62.2 µM
NCI-H460 lung
  TGI: 56.4 µM
P388 leukemia
  TGI: 175 µM
NCI-H226 lung
  TGI: 49.1 µM
SF-295 CNS
  TGI: 83.2 µM
UO-31 renal
  TGI: 91.9 µM
HCC-2998 colon
  TGI: 56.1 µM
RPMI-8226 leukemia
  TGI: 77.2 µM
HOP-18 NSCLC
  TGI: 28.3 µM
SN12C renal
  TGI: 50.2 µM
P388/ADR leukemia
  TGI: 27.9 µM
SF-539 CNS
  TGI: 44.6 µM
SN12K1 renal
  TGI: 37.9 µM
SK-OV-3 ovarian
  TGI: 131 µM
NCI-H522 lung
  TGI: 17.1 µM
UACC-62 melanoma
  TGI: 37.7 µM
SF-268 CNS
  TGI: 62.6 µM
SNB-78 CNS
  TGI: 62 µM
UACC-257 melanoma
  TGI: 34.9 µM
HCT-15 colon
  TGI: 35.3 µM
SW-620 colon
  TGI: 34.5 µM
LOX IMVI melanoma
  TGI: 21.2 µM
OVCAR-5 ovarian
  TGI: 63.6 µM
NCI-H23 lung
  TGI: 52.7 µM
DMS 273 small cell lung
  TGI: > 60.3 µM
NCI/ADR-RES ovarian
  TGI: 45.3 µM
